Test results: US20240279218A1 (Hoffmann-La Roche Inc., priority 2016, published 2024)

Legend:
h-GABA-A α5β3γ2 [1] = molecular target: T1, h-GABA-A α5β3γ2 (Homo sapiens (Human), UniProt P18507+P31644); experiment: Two-electrode voltage clamp electrophysiology in Xenopus oocytes expressing GABAA receptors, modulation of GABA EC20 current; assay type: cell-based; details: Xenopus oocytes; for Efficacy (GABA) %: % modulation of GABA EC20 = 100*(Fold increase−1); for Fold increase h-GABA-A α5β3γ2 oocyte: GABA EC20, test compound at approx. 30 fold its Ki
Outline: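 Values are % modulation of an EC20 GABA response, derived point by point from the ratio of compound-exposed versus control current traces (extremum taken, 100×(fold−1)). Recordings used oocytes injected with human α5, β3, γ2 mRNA, clamped at −80 mV at room temperature, at least 3 oocytes each.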

h-GABA-A α5β3γ2 [2] = molecular target: T1, h-GABA-A α5β3γ2; experiment: [3H]flumazenil competition binding assay, membranes of HEK293 cells expressing human GABAA receptors; details: displacement of [3H]flumazenil 0.5 nM, HEK293 cells expressing human receptors, mean of two determinations; read-out: Ki h-GABA-A α5β3γ2
Outline: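 Membranes were prepared from HEK293 cells with transient human α5β3γ2 expression and assayed in Krebs-tris, pH 7.5. Bound radioactivity measured on filters by liquid scintillation.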

| Efficacy (GABA) % (h-GABA-A α5β3γ2 [1]) [%] | Fold increase h-GABA-A α5β3γ2 oocyte (h-GABA-A α5β3γ2 [1]) | Ki (h-GABA-A α5β3γ2 [2]) [nM] | Structure (SMILES) |
| --- | --- | --- | --- |
| 68 | 1.68 | 13 | Cc1ccc(-c2noc(C)c2COc2ccc(C(=O)N3CC(F)(F)C3)nn2)cn1 [Example 47, (3,3-difluoroazetidin-1-yl)(6-((5-methyl-3-(6-methylpyridin-3-yl)isoxazol-4-yl)methoxy)pyridazin-3-yl)methanone] |
| 74 | 1.74 | 31.6 | Cc1ccc(-c2noc(C)c2COc2ccc(C(=O)N3CCC(F)(F)C3)nn2)cn1 [Example 48, (3,3-difluoropyrrolidin-1-yl)(6-((5-methyl-3-(6-methylpyridin-3-yl)isoxazol-4-yl)methoxy)pyridazin-3-yl)methanone] |
| 70 | 1.7 | 13.6 | Cc1ccc(-c2noc(C)c2COc2ccc(C(=O)NCC3(C)COC3)nn2)cn1 [Example 49, 6-((5-methyl-3-(6-methylpyridin-3-yl)isoxazol-4-yl)methoxy)-N-((3-methyloxetan-3-yl)methyl)pyridazine-3-carboxamide] |
| 72 | 1.72 | 7.6 | Cc1ccc(-c2noc(C)c2COc2ccc(C(=O)NCC3COC3)nn2)cn1 [Example 50, 6-((5-methyl-3-(6-methyl-3-pyridyl)isoxazol-4-yl)methoxy)-N-(oxetan-3-ylmethyl)pyridazine-3-carboxamide] |
| 57 | 1.57 | 10.8 | Cc1ccc(-c2noc(C)c2COc2ccc(C(=O)NCC3(O)COC3)nn2)cn1 [Example 51, N-((3-hydroxyoxetan-3-yl)methyl)-6-((5-methyl-3-(6-methylpyridin-3-yl)isoxazol-4-yl)methoxy)pyridazine-3-carboxamide] |
| 67 | 1.67 | 28.9 | Cc1ccc(-c2noc(C)c2COc2ccc(C(=O)N[C@@H]3CCOC[C@@H]3C)nn2)cn1 [Example 52, 6-((5-methyl-3-(6-methylpyridin-3-yl)isoxazol-4-yl)methoxy)-N-((3R,4R)-3-methyltetrahydropyran-4-yl)pyridazine-3-carboxamide] |
| 80 | 1.8 | 95.8 | Cc1ccc(-c2noc(C)c2COc2ccc(C(=O)N3CCC(F)(F)CC3)nn2)cn1 [Example 53, (4,4-difluoropiperidin-1-yl)(6-((5-methyl-3-(6-methylpyridin-3-yl)isoxazol-4-yl)methoxy)pyridazin-3-yl)methanone] |
| 86 | 1.86 | 19.9 | COCC1(NC(=O)c2ccc(OCc3c(-c4ccc(C)nc4)noc3C)nn2)CC1 [Example 54, N-(1-(methoxymethyl)cyclopropyl)-6-((5-methyl-3-(6-methylpyridin-3-yl)isoxazol-4-yl)methoxy)pyridazine-3-carboxamide] |
| 57 | 1.57 | 8.6 | COC1CN(C(=O)c2ccc(OCc3c(-c4ccc(C)nc4)noc3C)nn2)C1 [Example 55, (3-methoxyazetidin-1-yl)(6-((5-methyl-3-(6-methylpyridin-3-yl)isoxazol-4-yl)methoxy)pyridazin-3-yl)methanone] |
| 64 | 1.64 | 7.9 | Cc1ccc(-c2noc(C)c2COc2ccc(C(=O)N3CC(C)(O)C3)nn2)cn1 [Example 56, (3-hydroxy-3-methylazetidin-1-yl)(6-((5-methyl-3-(6-methylpyridin-3-yl)isoxazol-4-yl)methoxy)pyridazin-3-yl)methanone] |
| 64 | 1.64 | 7.2 | Cc1ccc(-c2noc(C)c2COc2ccc(C(=O)N3CCC3)nn2)cn1 [Example 57, azetidin-1-yl(6-((5-methyl-3-(6-methylpyridin-3-yl)isoxazol-4-yl)methoxy)pyridazin-3-yl)methanone] |
| 93 | 1.93 | 10.4 | Cc1ccc(-c2noc(C)c2COc2ccc(C(=O)NC3(C(F)(F)F)CC3)nn2)cn1 [Example 59, 6-((5-methyl-3-(6-methylpyridin-3-yl)isoxazol-4-yl)methoxy)-N-(1-(trifluoromethyl)cyclopropyl)pyridazine-3-carboxamide] |
| 99 | 1.99 | 93.4 | Cc1ccc(-c2noc(C)c2COc2ccc(C(=O)N3CCOCC3)nn2)cn1 [Example 60, (6-((5-methyl-3-(6-methylpyridin-3-yl)isoxazol-4-yl)methoxy)pyridazin-3-yl)(morpholino)methanone] |
| 58 | 1.58 | 7.1 | Cc1ccc(-c2noc(C)c2COc2ccc(C(=O)N3CC4(COC4)C3)nn2)cn1 [Example 61, (6-((5-methyl-3-(6-methylpyridin-3-yl)isoxazol-4-yl)methoxy)pyridazin-3-yl)(2-oxa-6-azaspiro[3.3]heptan-6-yl)methanone] |
| 42 | 1.42 | 20.8 | Cc1ccc(-c2noc(C)c2COc2cc(C)c(C(=O)NC3CCOCC3)nn2)cn1 [Example 62, 4-methyl-6-((5-methyl-3-(6-methylpyridin-3-yl)isoxazol-4-yl)methoxy)-N-(tetrahydropyran-4-yl)pyridazine-3-carboxamide] |
| 79 | 1.79 | 4.6 | Cc1ccc(-c2noc(C)c2COc2ccc(C(=O)N3CCC34COC4)nn2)cn1 [Example 63, (6-((5-methyl-3-(6-methylpyridin-3-yl)isoxazol-4-yl)methoxy)pyridazin-3-yl)(6-oxa-1-azaspiro[3.3]heptan-1-yl)methanone] |
| 86 | 1.86 | 17.6 | Cc1ccc(-c2noc(C)c2COc2ccc(C(=O)NC(C)(C)C(F)(F)F)nn2)cn1 [Example 64, 6-((5-methyl-3-(6-methylpyridin-3-yl)isoxazol-4-yl)methoxy)-N-(1,1,1-trifluoro-2-methylpropan-2-yl)pyridazine-3-carboxamide] |
| 62 | 1.62 | 7.2 | Cc1ccc(-c2noc(C)c2COc2ccc(C(=O)N3CC(F)C3)nn2)cn1 [Example 65, (3-fluoroazetidin-1-yl)(6-((5-methyl-3-(6-methylpyridin-3-yl)isoxazol-4-yl)methoxy)pyridazin-3-yl)methanone] |
| 69 | 1.69 | 5.8 | Cc1ccc(-c2noc(C)c2COc2ccc(C(=O)N3CC(O)C3)nn2)cn1 [Example 66, (3-hydroxyazetidin-1-yl)(6-((5-methyl-3-(6-methylpyridin-3-yl)isoxazol-4-yl)methoxy)pyridazin-3-yl)methanone] |
| 59 | 1.59 | 11.8 | Cc1ccc(-c2noc(C)c2COc2ccc(C(=O)N3CC(C)(F)C3)nn2)cn1 [Example 67, (3-fluoro-3-methylazetidin-1-yl)(6-((5-methyl-3-(6-methylpyridin-3-yl)isoxazol-4-yl)methoxy)pyridazin-3-yl)methanone] |
| 72 | 1.72 | 56.2 | CCOC(=O)C1(NC(=O)c2ccc(OCc3c(-c4ccc(C)nc4)noc3C)nn2)CC1 [Example 68, ethyl 1-(6-((5-methyl-3-(6-methylpyridin-3-yl)isoxazol-4-yl)methoxy)pyridazine-3-carboxamido)cyclopropanecarboxylate] |
| 86 | 1.86 | 7.7 | Cc1ccc(-c2noc(C)c2COc2ccc(C(=O)NC3(C#N)CC3)nn2)cn1 [Example 69, N-(1-cyanocyclopropyl)-6-((5-methyl-3-(6-methylpyridin-3-yl)isoxazol-4-yl)methoxy)pyridazine-3-carboxamide] |
| 54 | 1.54 | 1.2 | Cc1ccc(-c2noc(C)c2COc2nnc(C(N)=O)cc2C)cn1 [Example 70, 5-methyl-6-((5-methyl-3-(6-methylpyridin-3-yl)isoxazol-4-yl)methoxy)pyridazine-3-carboxamide] |
| 61 | 1.61 | 2.4 | Cc1ccc(-c2noc(C)c2COc2nnc(C(=O)NC3CCOCC3)cc2C)cn1 [Example 71] |
| 130 | 2.3 | 11.4 | Cc1ccc(-c2noc(C)c2COc2cnc(C(=O)NC3CCS(=O)(=O)CC3)cn2)cn1 [Example 72, N-(1,1-dioxothian-4-yl)-5-((5-methyl-3-(6-methyl-3-pyridyl)isoxazol-4-yl)methoxy)pyrazine-2-carboxamide] |
| 45 | 1.45 | 52.8 | Cc1ccc(-c2noc(C)c2COc2cnc(C(=O)NC(C)(C)CO)cn2)cn1 [Example 73, N-(2-hydroxy-1,1-dimethyl-ethyl)-5-((5-methyl-3-(6-methyl-3-pyridyl)isoxazol-4-yl)methoxy)pyrazine-2-carboxamide] |
